Assay results as given in BindingDB's records for doi:10.1016/j.ejmech.2019.01.048 (University of Berne, 2019).
pIC50: −log10 of the molar value.

Target: Transient receptor potential cation channel subfamily M member 4 (Homo sapiens, UniProt Q8TD43)
Experiment: Inhibition of TRPM4 (unknown origin)

Sequence of Transient receptor potential cation channel subfamily M member 4 (Q8TD43 whole entry): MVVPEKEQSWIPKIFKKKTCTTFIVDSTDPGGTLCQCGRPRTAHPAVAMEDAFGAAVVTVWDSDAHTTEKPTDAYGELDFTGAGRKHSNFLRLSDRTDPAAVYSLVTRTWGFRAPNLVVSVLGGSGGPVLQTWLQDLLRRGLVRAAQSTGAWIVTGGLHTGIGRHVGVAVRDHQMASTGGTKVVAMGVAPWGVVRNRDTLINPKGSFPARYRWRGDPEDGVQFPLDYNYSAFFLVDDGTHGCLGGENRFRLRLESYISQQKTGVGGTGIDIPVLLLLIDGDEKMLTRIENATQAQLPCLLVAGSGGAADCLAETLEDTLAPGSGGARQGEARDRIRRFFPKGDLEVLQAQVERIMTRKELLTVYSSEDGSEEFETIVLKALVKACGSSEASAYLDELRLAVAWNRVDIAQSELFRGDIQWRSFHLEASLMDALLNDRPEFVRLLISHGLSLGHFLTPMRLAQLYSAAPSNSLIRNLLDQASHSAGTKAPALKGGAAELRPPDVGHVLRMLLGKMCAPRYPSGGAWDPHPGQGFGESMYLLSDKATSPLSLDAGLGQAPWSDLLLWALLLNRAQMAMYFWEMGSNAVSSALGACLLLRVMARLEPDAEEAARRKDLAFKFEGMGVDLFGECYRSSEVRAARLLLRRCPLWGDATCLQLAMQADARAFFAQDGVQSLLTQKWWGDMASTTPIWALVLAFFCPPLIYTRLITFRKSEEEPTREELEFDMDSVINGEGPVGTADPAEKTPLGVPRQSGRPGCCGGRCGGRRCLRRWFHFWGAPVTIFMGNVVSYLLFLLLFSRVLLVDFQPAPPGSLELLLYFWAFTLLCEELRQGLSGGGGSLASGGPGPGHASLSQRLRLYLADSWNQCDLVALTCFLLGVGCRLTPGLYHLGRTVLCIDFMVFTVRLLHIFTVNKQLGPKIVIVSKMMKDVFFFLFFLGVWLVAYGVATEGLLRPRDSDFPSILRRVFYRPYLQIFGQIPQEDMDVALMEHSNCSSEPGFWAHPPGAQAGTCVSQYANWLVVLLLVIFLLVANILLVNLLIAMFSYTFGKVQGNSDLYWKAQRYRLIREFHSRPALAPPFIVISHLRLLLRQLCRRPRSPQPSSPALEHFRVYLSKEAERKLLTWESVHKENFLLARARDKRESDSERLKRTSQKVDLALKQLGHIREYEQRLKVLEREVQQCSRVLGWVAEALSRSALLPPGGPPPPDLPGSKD

Oc1cc2ccccc2c2ccccc12
pIC50: 4.54
